Laboratory results as given in publication PMC11530130, “Peripherally restricted PICK1 inhibitor mPD5 ameliorates pain behaviors in murine inflammatory and neuropathic pain models” (JCI Insight, 2024).
Values joined by “and” are separate entries in the source; they are usually repeats but may differ in a detail not shown here. Equal values may be shown once.

Legend:
PICK1 = PICK1 (Rattus norvegicus, UniProt Q9EP80); test: Fluorescence polarization competition binding; design: Full length rat PICK1 (pET41) was, as described earlier (1), expressed in BL21-DE3-pLysS; made in house; host or cells: E. coli BL21-DE3-pLysS
PICK1, sequence (Q9EP80 whole entry): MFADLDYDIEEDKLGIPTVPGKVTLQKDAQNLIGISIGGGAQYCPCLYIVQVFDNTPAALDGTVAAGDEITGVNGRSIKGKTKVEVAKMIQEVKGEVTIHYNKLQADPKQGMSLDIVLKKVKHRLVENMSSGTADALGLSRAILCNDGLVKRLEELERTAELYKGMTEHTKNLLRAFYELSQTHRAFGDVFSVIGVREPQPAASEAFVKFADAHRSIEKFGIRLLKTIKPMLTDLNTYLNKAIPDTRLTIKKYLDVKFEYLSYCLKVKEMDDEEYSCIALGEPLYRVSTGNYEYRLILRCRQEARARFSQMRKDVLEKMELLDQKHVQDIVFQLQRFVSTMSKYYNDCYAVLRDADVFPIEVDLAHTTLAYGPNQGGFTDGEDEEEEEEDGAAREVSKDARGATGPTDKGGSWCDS
Procedure: SUPPORTING INFORMATION: Method Section.
Sex as a biological variable.
All peptides were ordered from WuXI AppTec (Shanghai, China) or TAG-Copenhagen […]
Protein expression and purification.
Full length rat PICK1 (pET41) was, as described earlier (1), expressed in BL21-DE3-pLysS and grown at 37 °C, induced at OD600= 0.6 with 1 mM IPTG, and grown for 16 hours at 20 °C.
Cultures were harvested and re-suspended in 50 mM Tris, 125 mM NaCl, 2 mM DTT (Sigma), 1% Triton X-100 (Sigma), 20 µg/mL DNAse 1 and half a tablet of cOmplete protease inhibitor cocktail (Roche) pr. 1 L culture. The resuspended pellets were frozen at -80 °C for later purification. The lysate was cleared by centrifugation (36,000 x g for 30 min at 4 °C), and the supernatant was incubated with Glutathione-Sepharose 4B beads (GE Healthcare) for two hours at 4 °C under gentle rotation and then centrifuged at 4000 x g for 5 min. The supernatant was removed, and the beads were washed twice in 35 mL 50 mM Tris, 125 mM NaCl, 2 mM DTT, and 0.01% Triton-X100. The beads were transferred to PD-10 Bio-Spin® Chromatography columns (Bio-Rad) and washed with an additional 3 column volumes. Each column was sealed and 0.075 U/µL, Novagen® was added for cleavage O/N at 4 °C under gentle rotation. PICK1 was eluted on ice and concentration was measured on a NanoDrop 3000.
Fluorescence polarization binding.
The competition binding assay was carried out using a fixed concentration of PICK1 (0.5 µM) […]
binding surface 96 well plates (Sigma-Aldrich, Ref. no. 3686). The plates were incubated 20 min on ice and the fluorescence polarization was measured on an Omega POLARstar plate reader (BMG LABTECH) using excitation filter of 485 nm and long pass emission filter of 520 nm. The data was plotted and fitted to a competitive binding One Site fit using GraphPad […]
Superdex200 Increase 10/300.

[1] = Small-angle x-ray scattering (SAXS), core-shell micelle model; format: physicochemical
Procedure: Peripherally restricted PICK1 inhibitor mPD5 ameliorates pain behaviors in murine inflammatory and neuropathic pain models.
SUPPORTING INFORMATION: Supplemental Table 1+2.
Supplemental Table 1. SAXS data collection and fitting table.
Buffer 50 mM Tris, 125 mM NaCl, pH 7.4
Extinction coefficient 11 000 M-1 cm-1
Molecular weight 1874 g/mol
Peptide concentration 0.19 - 9.37 mg/ml
SAXS data collection details
Instrument P12, Petra III, DESY [1]
Absolute calibration Water
Indirect Fourier Bayersapp.org transformations to obtain
Data rebin WillItRebin [4] […]
nmolec-hydrophilic [Å3] 2012 nmolec-hydrophobic [Å3] 377
Rtotal [Å] 22.6 (corresponding to a hydrophilic shell thickness of Dshell=10.4 Å) […]
[1] C. E. Blanchet, A. Spilotros, F. Schwemmer, M. A. Graewert, A. Kikhney, C. M. Jeffries, D. Franke, D. Mark, R. Zengerle, F.
Cipriani, S. Fiedler, M. Roessle, D. I. Svergun, J Appl Crystallogr 2015, 48, 431.
[2] S. Hansen, Journal of Applied Crystallography 2012, 45, 566.
[3] S. Hansen, Journal of Applied Crystallography 2014, 47, 1469.
[4] WillItFit MC Pedersen 2013. […]
Small Angle X-ray Scattering (SAXS).
Concentration series of mPD5 ranging from […] to 9.37 mg/mL was prepared in buffer containing 50 mM Tris-HCl (pH 7.4) and 125 mM NaCl. Samples were measured at the P12 SAXS Beamline, PetraIII, DESY, Hamburg Germany (2). Initial data processing including radial averaging and conversion of the data into absolute scaled scattering intensity, I(q), as a function of the scattering vector q, where q= 4π sin(θ)/λ (θ = half scattering angle, λ = x-ray wave length) was done using the standard software, procedures and settings at the beamline (2). The processed scattering data was merged, buffer subtracted, and binned using WillItRebin with a binning factor of 1.02. The modelling of the SAXS data was performed using a molecular constrained core-shell model for polydisperse spherical micelles. In brief, it was assumed that the peptide aggregated into polydisperse spherical micelles. Here, the hydrophobic tails form the core, and these are surrounded by the hydrophilic part (the shell) in a spherical micelle. For the modelling, total scattering lengths of 2.26e-10 cm and 2.96e-11 cm were used for the headgroups and tail, respectively. These were calculated by multiplying the […]
electrons) by the scattering length of the electron which is just the classical electron radium of 2.82 fm. For the scattering length density calculations, it was assumed that the molecular volume of the C13 alkyl chain,nmolec-hydrophobic, was 377 Å3 as estimated by Tanfords empirical formula (V = 27.4 + 26.9n!) where nC denotes the number of carbons. i.e. 13 in this case (3).
The hydrophilic headgroup,nmolec-hydrophilic, was as a first estimate assumed to have a mass density corresponding to that of a soluble protein (i.e. 1.35 g/cm3), this yielded a molecular volume of 2078 Å3. This value was then taken as a free parameter in the fits and refined to a molecular volume of ~2010 Å3 corresponding to a mass density of 1.39 g/cm3 and with very little variation over the fits to the different sample concentrations. Excess scattering length densities of the core and shell of the micelle were then calculated in relation to the scattering length density of water (9.4e10 1/cm2). Using this molecular constrained model, the volumes of the core and of the shell were coupled internally through the fitted aggregation number, Nagg and the implicit […]
The relative polydispersity, srelative was described by a Gauss function of Nagg. The Gauss was truncated at ±3s. Through the fits, this value is refined to srelative values of the aggregation number at ~30% for the highest concentrations to up to 50% for the lowest concentrations. Note, however, that this variation in the particle volume translates to about 10%-15% variation of the particle radius. A full overview of the resulting fit-parameters is provided in Supplemental Table S1. As usual a small surface roughness (typical at the order of 2Å) and a small constant background were also […]

[2] = SAXS pair-distance distribution p(r)
[3] = spherical core-shell model fit, average

CCCCCCCCCCCCCC(=O)N(CCOCCOCCC(=O)N[C@@H](Cc1c[nH]cn1)C(=O)N[C@@H](Cc1c[nH]c2ccccc12)C(=O)N[C@@H](CC(C)C)C(=O)N[C@@H](CCCCN)C(=O)N[C@H](C(=O)O)C(C)C)CCOCCOCCC(=O)N[C@@H](Cc1c[nH]cn1)C(=O)N[C@@H](Cc1c[nH]c2ccccc12)C(=O)N[C@@H](CC(C)C)C(=O)N[C@@H](CCCCN)C(=O)N[C@H](C(=O)O)C(C)C [mPD5, myristoyl-NPEG4-(HWLKV)2]
Ki (PICK1): 3 nM | affinity gain compared with D5 (HWLKV) alone (PICK1; from Ki,app): approximately 1000 fold | affinity gain compared with PD5 (PICK1; from Ki,app): 30 fold | Dmax [1, 2]: approximately 50 Å | radius of gyration (Rg) [1, 2]: approximately 30 Å | Nagg, core shell model fit of single samples ([1]; five samples of the series 0.19 - 9.37 mg/ml, concentration of each column not given): 18.7 and 21.5 and 22.2 and 21.0 and 19.0 | hydrophobic core radius (Rcore) [1, 3]: 12.2 Å | shell thickness (Dshell) [1, 3]: 10.4 Å | total radius (Rtotal) [1, 3]: 22.6 Å
